Columns and labels:
Format in all cases: physicochemical
[1] = Drug stabilization effect under daylight exposure (Test Examples 182 to 211); parameters: key to Appearance (visual determination): ◯: no change; Δ: almost no change; x: change; settings: photostabilizer 0.05 wt %, daylight exposure (80 MJ); for Remaining ratio (%): liquid chromatography
Description: For observation of the change of the appearance of each test sample (determination based on visual observation) and the measurement of the remaining ratio by liquid chromatography before and after daylight exposure (80 MJ), the test sample was prepared.

[2] = Dye stabilization effect under daylight exposure (Test Examples 6-91); parameters: key to Δ E: color difference ΔE in Lab vs. color before daylight exposure; key to Appearance (visual determination): ◯: no change; Δ: almost no change; x: change; settings: photostabilizer 0.05 wt %, daylight exposure (80 MJ)
Description: For observation of the change of the appearance of each test sample (determination based on visual observation) and the measurement of color difference (ΔE) before and after daylight exposure (80 MJ), the test sample was prepared.
(§1) With a spectrophotometer, the color was measured on the Lab coordinate system, to calculate the color difference on the basis of the color before daylight exposure. More specifically, the color difference (ΔE) was calculated on the basis of the measured values (L1, a1, b1) before daylight exposure.

[3] = Stabilization effect on perfume under daylight exposure (Test Examples 92 to 181); parameters: key: ◯: no change; Δ: almost no change; x: change; settings: daylight exposure (80 MJ)
Description: Each test sample was prepared for observation of the change of the odor of the test sample (determined by perfume coordinator) before and after daylight exposure (80 MJ).

[4] = Dye stabilization effect in blend with sequestering agents (Test Examples 212 to 275); settings: dyes Red 401 (Violanin R) 0.0001 + Blue 1 (Brilliant Blue FCF) 0.00001, photostabilizer blend amount 0.02, daylight exposure (80 MJ)
Description: Each test sample was prepared for observation of the change of the appearance of each test sample (determined visually) and measurement of the color difference (ΔE) before and after daylight exposure (80 MJ).
as §1

[5] = drug Dipotassium glycyrrhizinate 0.05 wt %
[6] = dye Blue 1 (Brilliant Blue FCF) 0.0001 wt %
[7] = dye Green 3 (Fast Green FCF) 0.001 wt %
[8] = dye Red 227 (Acid Fuchsine D) 0.0001 wt %
[9] = dye Yellow 5 (Sunset Yellow FCF) 0.001 wt %
[10] = dyes Red 106 (Acid red) 0.00001 + Yellow 203 (Quinoline Yellow WS) 0.0001 wt %
[11] = base perfume Fruity, photostabilizer 0.1 wt %
[12] = base perfume Muge, photostabilizer 0.05 wt %
[13] = base perfume Spicy, photostabilizer 0.2 wt %
[14] = natural perfume Jasmine oil, photostabilizer 0.05 wt %
[15] = synthetic perfume Rose oxide, photostabilizer 0.2 wt %
[16] = drug L-ascorbic acid 2-glucoside 2.0 wt %
[17] = dyes Yellow 203 (Quinoline Yellow WS) 0.0001 + Yellow 5 (Sunset Yellow FCF) 0.0001 wt %
[18] = natural perfume Nelori oil, photostabilizer 0.1 wt %
[19] = synthetic perfume Limonene oil, photostabilizer 0.05 wt %
[20] = drug dibutylhydroxytoluene 0.01 wt %
[21] = drug dl-α-tocopherol 2-L-ascorbic acid phosphate diester potassium salt 0.01 wt %
[22] = dyes Red 213 (Rhodamine B) 0.00001 + Blue 1 (Brilliant Blue FCF) 0.00001 wt %
[23] = dyes Red 227 (Acid Fuchsine D) 0.0001 + Yellow 5 (Sunset Yellow FCF) 0.0001 wt %
[24] = dyes Red 401 (Violanin R) 0.0001 + Blue 1 (Brilliant Blue FCF) 0.00001 wt %
[25] = base perfume Rose, photostabilizer 0.05 wt %
[26] = base perfume Woody, photostabilizer 0.1 wt %
[27] = natural perfume Lavender oil, photostabilizer 0.1 wt %
[28] = natural perfume Rose oil, photostabilizer 0.05 wt %
[29] = natural perfume Ylang ylang oil, photostabilizer 0.2 wt %
[30] = synthetic perfume Citral, photostabilizer 0.1 wt %
[31] = synthetic perfume Linalool, photostabilizer 0.05 wt %
[32] = synthetic perfume Linalyl acetate, photostabilizer 0.1 wt %

Oc1nnccc1N1CCOCC1 [3-Hydroxy-4-morpholinopyridazine, 3-hydroxy-4-morpholinopyridazine]
Appearance (visual determination) [1, 5]: ◯
Remaining ratio (%) [1, 5]: 99.2%
Appearance (visual determination) [2, 6]: ◯
Δ E [2, 6]: 1.26
Appearance (visual determination) [2, 7]: ◯
Δ E [2, 7]: 0.48
Appearance (visual determination) [2, 8]: ◯
Δ E [2, 8]: 0.60
Appearance (visual determination) [2, 9]: ◯
Δ E [2, 9]: 0.62
Appearance (visual determination) [2, 10]: ◯
Δ E [2, 10]: 0.80
odor determination [3, 11]: ◯
odor determination [3, 12]: ◯
odor determination [3, 13]: ◯
odor determination [3, 14]: ◯
odor determination [3, 15]: ◯
Δ E ([4]; no sequestering agent): 1.34
Δ E ([4]; with ethylenediaminetetraacetate trisodium 0.03): 0.91

OCCNc1ccc(NCCO)nn1 [3,6-Bis(2-hydroxyethylamino)pyridazine, 3,6-bis(2-hydroxyethylamino)pyridazine]
Appearance (visual determination) [1, 5]: ◯
Remaining ratio (%) [1, 5]: 98.8%
Appearance (visual determination) [1, 16]: ◯
Remaining ratio (%) [1, 16]: 98.8%
Appearance (visual determination) [2, 6]: ◯
Δ E [2, 6]: 1.38
Appearance (visual determination) [2, 7]: ◯
Δ E [2, 7]: 0.63
Appearance (visual determination) [2, 8]: ◯
Δ E [2, 8]: 0.64
Appearance (visual determination) [2, 9]: ◯
Δ E [2, 9]: 0.66
Appearance (visual determination) [2, 17]: ◯
Δ E [2, 17]: 0.47
odor determination [3, 11]: ◯
odor determination [3, 18]: ◯
odor determination [3, 19]: ◯

COc1ccc(C(=O)c2ccccc2)c(O)c1 [2-Hydroxy-4-methoxybenzophenone, reference compound]
Appearance (visual determination) [1, 5]: Δ
Remaining ratio (%) [1, 5]: 97.8%
Appearance (visual determination) [1, 16]: Δ
Remaining ratio (%) [1, 16]: 97.8%
Appearance (visual determination) [1, 20]: Δ
Remaining ratio (%) [1, 20]: 95.2%
Appearance (visual determination) [1, 21]: Δ
Remaining ratio (%) [1, 21]: 95.4%
Appearance (visual determination) ([1]; drug salicylic acid 0.1 wt %): Δ
Remaining ratio (%) ([1]; drug salicylic acid 0.1 wt %): 98.2%
Appearance (visual determination) [2, 6]: Δ
Δ E [2, 6]: 1.76
Appearance (visual determination) [2, 7]: Δ
Δ E [2, 7]: 0.75
Appearance (visual determination) [2, 8]: Δ
Δ E [2, 8]: 0.71
Appearance (visual determination) [2, 9]: Δ
Δ E [2, 9]: 0.82
Appearance (visual determination) [2, 10]: Δ
Δ E [2, 10]: 1.11
Appearance (visual determination) [2, 22]: Δ
Δ E [2, 22]: 1.26
Appearance (visual determination) [2, 23]: Δ
Δ E [2, 23]: 0.88
Appearance (visual determination) [2, 24]: Δ
Δ E [2, 24]: 0.82
Appearance (visual determination) [2, 17]: ◯
Δ E [2, 17]: 0.52
odor determination [3, 11]: Δ
odor determination [3, 12]: Δ
odor determination [3, 25]: Δ
odor determination [3, 13]: Δ
odor determination [3, 26]: Δ
odor determination [3, 14]: Δ
odor determination [3, 27]: Δ
odor determination [3, 18]: Δ
odor determination [3, 28]: Δ
odor determination [3, 29]: Δ
odor determination [3, 30]: Δ
odor determination [3, 19]: Δ
odor determination [3, 31]: Δ
odor determination [3, 32]: Δ
odor determination [3, 15]: Δ

COc1ccc(C(=O)CC(=O)c2ccc(C(C)(C)C)cc2)cc1 [4-tert-Butyl-4′-methoxydibenzoylmethane, reference compound]
Appearance (visual determination) [1, 5]: Δ
Remaining ratio (%) [1, 5]: 96.6%
Appearance (visual determination) [1, 16]: Δ
Remaining ratio (%) [1, 16]: 97.0%
Appearance (visual determination) [1, 20]: Δ
Remaining ratio (%) [1, 20]: 95.2%
Appearance (visual determination) [1, 21]: Δ
Remaining ratio (%) [1, 21]: 94.5%
Appearance (visual determination) ([1]; drug salicylic acid 0.1 wt %): Δ
Remaining ratio (%) ([1]; drug salicylic acid 0.1 wt %): 97.2%
Appearance (visual determination) [2, 6]: Δ
Δ E [2, 6]: 1.49
Appearance (visual determination) [2, 7]: Δ
Δ E [2, 7]: 0.62
Appearance (visual determination) [2, 8]: Δ
Δ E [2, 8]: 0.95
Appearance (visual determination) [2, 9]: Δ
Δ E [2, 9]: 0.88
Appearance (visual determination) [2, 10]: Δ
Δ E [2, 10]: 1.02
Appearance (visual determination) [2, 22]: Δ
Δ E [2, 22]: 1.17
Appearance (visual determination) [2, 23]: Δ
Δ E [2, 23]: 0.80
Appearance (visual determination) [2, 24]: Δ
Δ E [2, 24]: 0.93
Appearance (visual determination) [2, 17]: ◯
Δ E [2, 17]: 0.48
odor determination [3, 11]: Δ
odor determination [3, 12]: Δ
odor determination [3, 25]: Δ
odor determination [3, 13]: Δ
odor determination [3, 26]: Δ
odor determination [3, 14]: Δ
odor determination [3, 27]: Δ
odor determination [3, 18]: Δ
odor determination [3, 28]: Δ
odor determination [3, 29]: Δ
odor determination [3, 30]: Δ
odor determination [3, 19]: Δ
odor determination [3, 31]: Δ
odor determination [3, 32]: Δ
odor determination [3, 15]: Δ
